The record followed here is the supplement of paper PMC11368000.

The structures appear in SMILES notation.

One test has as its system 11235 (donor line of iPSC-derived cardiomyocytes). The test is described as follows: POD (EC95) for loss of peak frequency (asystole) vs vehicle; higher = less potent (higher point of departure). The conditions noted are these: exposure time: 90 min. On the procedure: (§1)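 Human iPSC-derived cardiomyocytes from 16 donors were exposed for 90 min at 37 °C to each PFAS at 0.1, 1, 10 and 100 µM in 0.5% DMSO, 384-well plates. Kinetic Ca2+ flux (FLIPR) and Hoechst nuclei counts were normalised to vehicle wells and fitted with a hierarchical Bayesian Hill model to give donor-specific PODs: EC05 for beat-rate increase or decrease and for decay-to-rise ratio increase (QT proxy), EC95 for peak-frequency loss (asystole), EC10 for total cell number loss. 0.03 µM is the lower bound.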
For the compound `NC(=O)C(F)(F)C(F)(F)C(F)(F)C(F)(F)F` [Nonafluoropentanamide], the POD vs vehicle was greater than 100 µM.
On the same count and under the same terms, to `NC(=O)C(F)(F)C(F)(F)C(F)(F)C(F)(F)C(N)=O` [Octafluoroadipamide] belongs greater than 100 µM; to `O=C(O)C(F)(F)C(F)(F)C(F)(F)C(F)(F)C(=O)O` [Octafluoroadipic_acid], greater than 100 µM; to `O=C(O)C(F)(F)C(F)(F)C(F)(F)OC(F)(F)F` [Perfluoro(4-methoxybutanoic)_acid], greater than 100 µM.
`O=C(O)C(F)(F)OC(F)(F)C(F)(F)OC(F)(F)C(F)(F)OC(F)(F)C(F)(F)C(F)(F)C(F)(F)F` [Perfluoro-3,6,9-trioxatridecanoic_acid]: the POD vs vehicle amounted to 92.2 µM.
`O=C(O)C(F)(F)OC(F)(F)C(F)(F)OC(F)(F)F` [Perfluoro-3,6-dioxaheptanoic_acid] gave a POD vs vehicle greater than 100 µM.
Still for that read-out and setting: the same measure for `O=C(O)C(F)(F)OC(F)(F)C(F)(F)OC(F)(F)C(=O)O` [Perfluoro-3,6-dioxaoctane-1,8-dioic_acid]: greater than 100 µM; for `O=C(O)C(F)(F)C(F)(F)OC(F)(F)F` [Perfluoro-3-methoxypropanoic_acid]: greater than 100 µM; for `O=C(O)C(F)(F)C(F)(F)C(F)(F)OC(F)(C(F)(F)F)C(F)(F)F` [Perfluoro-4-isopropoxybutanoic_acid]: greater than 100 µM.
Same read-out and setting: to `O=S(=O)(O)C(F)(F)C(F)(F)C(F)(F)C(F)(F)F` [Perfluorobutanesulfonic_acid] belongs greater than 100 µM.

A further test has as its system 1309 (donor line of iPSC-derived cardiomyocytes). Described as above. The conditions noted are these: exposure time: 90 min. As to the method:
as §1
Take `O=S(=O)(O)CCC(F)(F)C(F)(F)C(F)(F)C(F)(F)C(F)(F)C(F)(F)C(F)(F)C(F)(F)F` [8:2 Fluorotelomer sulfonic acid]: the POD vs vehicle was greater than 100 µM.
On the same count and under the same terms, to `O=C(O)C(F)(F)C(F)(F)C(F)(F)C(F)(F)C(F)(F)C(F)(F)C(F)(F)C(F)(F)Cl` [9-Chloro-perfluorononanoic_acid] belongs greater than 100 µM.
On the same count and under the same terms, to `O=P(O)(O)CCC(F)(F)C(F)(F)C(F)(F)C(F)(F)C(F)(F)C(F)(F)C(F)(F)C(F)(F)F` [((Perfluorooctyl)ethyl)phosphonic_acid] belongs greater than 100 µM; to `O=C([O-])C(F)(F)C(F)(F)C(F)(F)C(F)(F)C(F)(F)C(F)(F)C(F)(F)F.[NH4+]` [Ammonium_perfluorooctanoate], greater than 100 µM; to `OCC(F)(F)C(F)(F)C(F)(F)C(F)(F)C(F)(F)C(F)F` [Dodecafluoroheptanol], 50.3 µM.
`OCC(F)(F)OC(F)(F)C(F)(F)OC(F)(F)C(F)(F)OC(F)(F)F` [Fluorinated_triethylene_glycol_monomethyl_ether] had a POD vs vehicle greater than 100 µM.
Still for that read-out and setting: to `OCC(F)(F)C(F)(F)C(F)(F)F` [Heptafluorobutanol] belongs greater than 100 µM; to `NC(=O)C(F)(F)C(F)(F)C(F)(F)F` [Heptafluorobutyramide], greater than 100 µM; to `OCC(F)(F)C(F)(F)C(F)(F)CO` [Hexafluoroamylene_glycol], greater than 100 µM.
Same read-out and setting: to `COC(=O)C(F)(F)C(F)(F)OC(F)(C(F)(F)F)C(F)(F)OC(F)=C(F)F` (stereo not given) [Methyl_perfluoro(3-(1-ethenyloxypropan-2-yloxy)propanoate)] belongs greater than 100 µM.
Same read-out and setting: to `NC(=O)C(F)(F)C(F)(F)C(F)(F)C(F)(F)F` [Nonafluoropentanamide] belongs greater than 100 µM; to `NC(=O)C(F)(F)C(F)(F)C(F)(F)C(F)(F)C(N)=O` [Octafluoroadipamide], greater than 100 µM; to `O=C(O)C(F)(F)C(F)(F)C(F)(F)C(F)(F)C(=O)O` [Octafluoroadipic_acid], greater than 100 µM.
`O=C(O)C(F)(F)C(F)(F)C(F)(F)OC(F)(F)F` [Perfluoro(4-methoxybutanoic)_acid]: the POD vs vehicle is greater than 100 µM.
`O=C(O)C(F)(F)OC(F)(F)C(F)(F)OC(F)(F)C(F)(F)OC(F)(F)C(F)(F)C(F)(F)C(F)(F)F` [Perfluoro-3,6,9-trioxatridecanoic_acid] returned a POD vs vehicle greater than 100 µM.
On the same count and under the same terms, to `O=C(O)C(F)(F)OC(F)(F)C(F)(F)OC(F)(F)F` [Perfluoro-3,6-dioxaheptanoic_acid] belongs greater than 100 µM.
With `O=C(O)C(F)(F)OC(F)(F)C(F)(F)OC(F)(F)C(=O)O` [Perfluoro-3,6-dioxaoctane-1,8-dioic_acid], the POD vs vehicle was greater than 100 µM.
`O=C(O)C(F)(F)C(F)(F)OC(F)(F)F` [Perfluoro-3-methoxypropanoic_acid] returned a POD vs vehicle greater than 100 µM.
`O=C(O)C(F)(F)C(F)(F)C(F)(F)OC(F)(C(F)(F)F)C(F)(F)F` [Perfluoro-4-isopropoxybutanoic_acid]: the POD vs vehicle was greater than 100 µM.
Same read-out and setting: the same measure for `O=S(=O)(O)C(F)(F)C(F)(F)C(F)(F)C(F)(F)F` [Perfluorobutanesulfonic_acid]: greater than 100 µM.

A further test has as its system 1368 (donor line of iPSC-derived cardiomyocytes). Described as above. The conditions noted are these: exposure time: 90 min. On the procedure:
as §1
Turning to `O=S(=O)(O)CCC(F)(F)C(F)(F)C(F)(F)C(F)(F)C(F)(F)C(F)(F)C(F)(F)C(F)(F)F` [8:2 Fluorotelomer sulfonic acid], the POD vs vehicle is greater than 100 µM.
For `O=C(O)C(F)(F)C(F)(F)C(F)(F)C(F)(F)C(F)(F)C(F)(F)C(F)(F)C(F)(F)Cl` [9-Chloro-perfluorononanoic_acid], the POD vs vehicle is greater than 100 µM.
The compound `O=P(O)(O)CCC(F)(F)C(F)(F)C(F)(F)C(F)(F)C(F)(F)C(F)(F)C(F)(F)C(F)(F)F` [((Perfluorooctyl)ethyl)phosphonic_acid] showed a POD vs vehicle greater than 100 µM.
For the compound `O=C([O-])C(F)(F)C(F)(F)C(F)(F)C(F)(F)C(F)(F)C(F)(F)C(F)(F)F.[NH4+]` [Ammonium_perfluorooctanoate], the POD vs vehicle was greater than 100 µM.
As to `OCC(F)(F)C(F)(F)C(F)(F)C(F)(F)C(F)(F)C(F)F` [Dodecafluoroheptanol], the POD vs vehicle was 35.7 µM.
Same read-out and setting: to `OCC(F)(F)OC(F)(F)C(F)(F)OC(F)(F)C(F)(F)OC(F)(F)F` [Fluorinated_triethylene_glycol_monomethyl_ether] belongs greater than 100 µM; to `OCC(F)(F)C(F)(F)C(F)(F)F` [Heptafluorobutanol], greater than 100 µM.
In turn, `NC(=O)C(F)(F)C(F)(F)C(F)(F)F` [Heptafluorobutyramide] returned a POD vs vehicle greater than 100 µM.
As for `OCC(F)(F)C(F)(F)C(F)(F)CO` [Hexafluoroamylene_glycol], the POD vs vehicle was greater than 100 µM.
On the same count and under the same terms, to `COC(=O)C(F)(F)C(F)(F)OC(F)(C(F)(F)F)C(F)(F)OC(F)=C(F)F` (stereo not given) [Methyl_perfluoro(3-(1-ethenyloxypropan-2-yloxy)propanoate)] belongs greater than 100 µM.
As for `NC(=O)C(F)(F)C(F)(F)C(F)(F)C(F)(F)F` [Nonafluoropentanamide], the POD vs vehicle is greater than 100 µM.
`NC(=O)C(F)(F)C(F)(F)C(F)(F)C(F)(F)C(N)=O` [Octafluoroadipamide]: the POD vs vehicle was greater than 100 µM.
The same measure, in the same setting: the same measure for `O=C(O)C(F)(F)C(F)(F)C(F)(F)C(F)(F)C(=O)O` [Octafluoroadipic_acid]: greater than 100 µM; for `O=C(O)C(F)(F)C(F)(F)C(F)(F)OC(F)(F)F` [Perfluoro(4-methoxybutanoic)_acid]: greater than 100 µM.
On the same count and under the same terms, the same measure for `O=C(O)C(F)(F)OC(F)(F)C(F)(F)OC(F)(F)C(F)(F)OC(F)(F)C(F)(F)C(F)(F)C(F)(F)F` [Perfluoro-3,6,9-trioxatridecanoic_acid]: greater than 100 µM.
The compound `O=C(O)C(F)(F)OC(F)(F)C(F)(F)OC(F)(F)F` [Perfluoro-3,6-dioxaheptanoic_acid] had a POD vs vehicle greater than 100 µM.
On the same count and under the same terms, the same measure for `O=C(O)C(F)(F)OC(F)(F)C(F)(F)OC(F)(F)C(=O)O` [Perfluoro-3,6-dioxaoctane-1,8-dioic_acid]: greater than 100 µM.
With `O=C(O)C(F)(F)C(F)(F)OC(F)(F)F` [Perfluoro-3-methoxypropanoic_acid], the POD vs vehicle is greater than 100 µM.
On the same count and under the same terms, to `O=C(O)C(F)(F)C(F)(F)C(F)(F)OC(F)(C(F)(F)F)C(F)(F)F` [Perfluoro-4-isopropoxybutanoic_acid] belongs greater than 100 µM; to `O=S(=O)(O)C(F)(F)C(F)(F)C(F)(F)C(F)(F)F` [Perfluorobutanesulfonic_acid], greater than 100 µM.
